Measured values published in patent publication US20200268720A1, “METHODS OF USE OF A CLASS IIA HDAC INHIBITOR” (GlaxoSmithKline LLC, priority 2016, published 2020).
Entries after “also recorded” stand apart in the source; their conditions may differ.

Assays:
[1] = system: human breast cancer cell lines (BT20, MCF7, HCC202, T47D, MDA-MB-453 and MDA-MB-436); assay: In vitro cell death assay (CellTiter-Glo), human lines; format: cell-based; conditions: 0, 0.1, 1, 10 μM, 48 hours
Protocol: The human breast cancer cell lines (BT20, MCF7, HCC202, T47D, MDA-MB-453 and MDA-MB-436) were obtained from ATCC. Prior to use, cell line authentication was performed by either STR profiling at Dana-Farber Cancer Institute or by Fluidigm based fingerprinting with a panel of SNPs at The Broad Institute. Cell lines were tested for mycoplasma with the MycoAlert PLUS Mycoplasma Detection Kit (Lonza LT07) according to manufacturer's instructions. Mouse breast tumor cell lines were established from 4 different MMTV-PyMT tumor bear mice. Mouse breast tumor cell line 7333 was implanted into wild-type littermates and once the tumor formed it was removed and used to generate the tumor cell line “MMTV”. All cells were plated at 1E4 cells/well in a 96 well plate. Cells were treated for 48 hours and CellTiter-Glo was used to assess cell viability.

[2] = system: myeloid cells (CD11b+) and T lymphocyte (CD3+) populations in the tumor; assay: Gene expression of FACS double-sorted tumor infiltrating leukocytes from MMTV-PyMT tumors; format: in vivo, mouse
Protocol: Tumor cells were isolated and processed as previously described. To enrich for CD45^+ immune cells, EPCAM^+ tumor cell depletion was carried out. Whole tumor cell suspension was incubated with biotinylated anti-EPCAM antibody (MACS Miltenyi cat. #130-101-859, clone caa7-9G8) for 10 minutes followed by incubation with Anti-Biotin Microbeads (MACS Miltenyi cat. #130-090-485) for 15 minutes at 4° C. in the dark. […] Following negative selection, EPCAM-depleted cells were stained for anti-mouse CD45 Alex FLOUR® 488 (BioLegend cat. #103121, clone 30-F11), anti-mouse CD3 BV421 (BioLegend cat. #100227, clone 17A2), anti-mouse CD11b APC (BioLegend cat. #101211, clone M1/70), and anti-mouse CD19 (BioLegend cat. #115507, clone 6D5). 7-AAD Viability Staining Solution (BioLegend cat. #420403) was applied to the cells 10 minutes prior to sorting on the BD FACSAria. CD45+/CD19-/7-AAD-/CD3+ cells and CD45+/CD19-/7-AAD-/CD11b+ cells were sorted into DMEM medium (Life Technologies cat. #11995-065) containing 2% FBS at 4° C. Cells were pelleted and immediately lysed in RNEASY® RLT buffer (RNEASY® Mini Plus Kit, Qiagen cat. #74134) containing 2-mercaptoethanol. RNA was isolated according to RNEASY® instructions in combination with RNase-Free DNase Set (Qiagen cat. #79254) standard protocol, and quality was verified with the Nanodrop™ Spectrophotometer. To obtain adequate amounts of RNA tumors from 5 mice were pooled together for each “sample”.
All procedures were performed at Boston University Microarray Resource Facility as described in the GENECHIP® Whole Transcript (WT) Plus Reagent Kit Manual (Affymetrix, Santa Clara, Calif.). Briefly, the total RNA was isolated using an RNEASY® kit (Qiagen), and the sample integrity was verified using RNA 6000 Pico Assay RNA chips run in Agilent 2100 Bioanalyzer (Agilent Technologies). The total RNA (200 ng) was reverse transcribed using GENECHIP® WT PLUS Reagent Kit (Affymetrix). The obtained cDNA was used as a template for in vitro transcription using GeneChip® WT Expression Kit (Life Technologies). The obtained antisense cRNA was purified using Nucleic Acid Binding Beads (GENECHIP® WT PLUS Reagent Kit, Affymetrix) and used as a template for reverse transcription to produce single-stranded DNA in the sense orientation. During this step, dUTP was incorporated. The DNA was then fragmented using uracil DNA glycosylase (UDG) and apurinic/apyrimidinic endonuclease 1 (APE 1) and labeled with DNA labeling reagent covalently linked to biotin using terminal deoxynucleotidyl transferase (TdT, GENECHIP® WT PLUS Reagent Kit, Affymetrix). IVT and cDNA fragmentation quality controls were carried out by running an mRNA Pico assay in the Agilent 2100 Bioanalyzer. […]

tumor vasculature = assay: Tumor vasculature (CD34 IHC, heavy dextran leaky vasculature experiment); format: in vivo, mouse
Protocol: Tumor bearing mice that had been treated for 5 days with vehicle or TMP195 were injected with a heavy molecular weight (250 kDa; Sigma-Aldrich FD250S) dextran labeled with FITC36. After 10 minutes, mice were sacrificed. […] Tumors were removed and placed in a 4% PBS/Paraformaldehyde solution overnight, then embedded in a 20% sucrose solution overnight. Tumors were embedded in an optimum cutting temperature (OCT) solution and stored at −80° C. prior to sectioning and staining. The extent of the heavy dextran that permeated through the vasculature was visualized by immunofluorescence.

[3] = system: CD11b+ bone marrow derived CFSE-labeled monocytes; assay: Monocyte tracking experiment; format: in vivo, mouse; conditions: TMP195 treatment of recipient mice vs DMSO
Protocol: Monocyte tracking was adapted and modified from Qian et al.^35 Bone marrow cells were isolated from approximately 80 day old wild-type FVB/N virgin females. CD11b+ cells were isolated with CD11b MicroBeads (Miltenyi Biotec 130-049-601) using LS magnetic separation columns (Miltenyi Biotec 130-042-401) per manufacturer's instruction. CD11b^+ cells were incubated with 10 μM of CFSE (ThermoFisher C34554) for 15 minutes at 37° C. […] Mice were treated for an additional 5 days and tumors were harvested. The percent of CD11b^+ CFSE^+ double positive cells was assessed by flow cytometry.

[4] = TMP195 daily for 5 days vs DMSO

CC(C)(CNC(=O)c1cccc(-c2noc(C(F)(F)F)n2)c1)c1coc(-c2ccccc2)n1 [TMP195, N-(2-methyl-2-(2-phenyloxazol-4-yl)propyl)-3-(5-(trifluoromethyl)-1,2,4-oxadiazol-3-yl)benzamide]
cell viability, 6 human breast cancer cell lines [1]: not directly cytotoxic; also recorded: does not affect cell viability
number of differentially expressed probes (δ-factor >1.5) in CD3+ cells [2, 4]: 3 probes
number of differentially expressed probes (δ-factor >1.5) in CD11b+ cells [2, 4]: 26 probes
increase in gene expression in CD11b+ myeloid cells ([2]; TMP195 daily for 5 days vs DMSO, probes with δ-factor >1.5): up to 4.8 fold
IFNγ response gene signature in tumor-resident CD11b+ cells ([2]; TMP195 treatment): induced an IFNγ response gene signature
tumor vasculature organization (CD34+ vessel structure) (tumor vasculature; 5 days of TMP195 vs DMSO): more organized
integrity of the tumor vasculature (retention of IV heavy dextran) (tumor vasculature; 5 days of TMP195 vs vehicle): significantly improved
proportion of IV injected CD11bhiCFSE+ monocytes recruited to tumors [3]: significant increase; also recorded: significantly enhanced
